Source: US20250136568A1, “FUSED HETEROCYCLIC COMPOUNDS AS PI3KALPHA INHIBITORS” (Nanjing Zenshine Pharmaceuticals Co., Ltd., priority 2021, published 2025)
Like-named read-outs stand apart in the source and are kept apart here.

How the values were obtained:
Type in all cases: cell-based
[1] = biological target: PI3Kα WT (Homo sapiens, UniProt P42336); test: pAKT (S473) ELISA assay in WT cell line (SK-BR-3); conditions: SK-BR-3 cells, two hours compound, IGF-1 50 ng/ml stimulation
Description: (§1) Cells were serum starved for 4 hours prior to compound treatment; compound solution was added to each well (3-fold serial dilution starting at desired concentration) for two hours in serum-free medium, followed by stimulation with IGF-1 for 60 minutes at a final concentration of 50 ng/ml as noted. After compound treatment and stimulation, discarded the supernatant and cells were lysed by cell lysis buffer (Cell Signaling Technology, #9803S). The lysate was transferred to the ELISA plate, the Phospho-AKT (Ser473) ELISA was performed as the manufacturer's directions (Cell Signaling Technology, #7160CA).

[2] = tested on: PI3Kα H1047R mutation cell line T-47D; test: Cell Proliferation IC50 Assay (CellTiter-Glo), T-47D; conditions: T47D (H1047R), 72 hours, CellTiter-Glo, read-out: IC50 (μM) T47D
Summary of the method: (§2)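 Cells were seeded and left overnight, then exposed to serially diluted compound (200-fold final dilution) for 72 h at 37 °C, 5% CO2. Viability was read by CellTiter-Glo luminescence. Percent inhibition and IC50 were calculated from the signal.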

[3] = tested on: PI3Kα H1047R mutation cell line MDA-MB-453; test: Cell Proliferation IC50 Assay (CellTiter-Glo), MDA-MB-453; conditions: read-out: IC50 (μM) MDA-MB-453
Summary of the method: as §2

[4] = biological target: PI3Kα H1047R mutant (Homo sapiens, UniProt P42336, H1047R); test: pAKT (S473) ELISA assay in PI3Kα H1047R mutant cell line (T47D); conditions: T47D cells, two hours compound, IGF-1 50 ng/ml stimulation
Sequence of PI3Kα H1047R mutant (P42336 whole entry H1047R): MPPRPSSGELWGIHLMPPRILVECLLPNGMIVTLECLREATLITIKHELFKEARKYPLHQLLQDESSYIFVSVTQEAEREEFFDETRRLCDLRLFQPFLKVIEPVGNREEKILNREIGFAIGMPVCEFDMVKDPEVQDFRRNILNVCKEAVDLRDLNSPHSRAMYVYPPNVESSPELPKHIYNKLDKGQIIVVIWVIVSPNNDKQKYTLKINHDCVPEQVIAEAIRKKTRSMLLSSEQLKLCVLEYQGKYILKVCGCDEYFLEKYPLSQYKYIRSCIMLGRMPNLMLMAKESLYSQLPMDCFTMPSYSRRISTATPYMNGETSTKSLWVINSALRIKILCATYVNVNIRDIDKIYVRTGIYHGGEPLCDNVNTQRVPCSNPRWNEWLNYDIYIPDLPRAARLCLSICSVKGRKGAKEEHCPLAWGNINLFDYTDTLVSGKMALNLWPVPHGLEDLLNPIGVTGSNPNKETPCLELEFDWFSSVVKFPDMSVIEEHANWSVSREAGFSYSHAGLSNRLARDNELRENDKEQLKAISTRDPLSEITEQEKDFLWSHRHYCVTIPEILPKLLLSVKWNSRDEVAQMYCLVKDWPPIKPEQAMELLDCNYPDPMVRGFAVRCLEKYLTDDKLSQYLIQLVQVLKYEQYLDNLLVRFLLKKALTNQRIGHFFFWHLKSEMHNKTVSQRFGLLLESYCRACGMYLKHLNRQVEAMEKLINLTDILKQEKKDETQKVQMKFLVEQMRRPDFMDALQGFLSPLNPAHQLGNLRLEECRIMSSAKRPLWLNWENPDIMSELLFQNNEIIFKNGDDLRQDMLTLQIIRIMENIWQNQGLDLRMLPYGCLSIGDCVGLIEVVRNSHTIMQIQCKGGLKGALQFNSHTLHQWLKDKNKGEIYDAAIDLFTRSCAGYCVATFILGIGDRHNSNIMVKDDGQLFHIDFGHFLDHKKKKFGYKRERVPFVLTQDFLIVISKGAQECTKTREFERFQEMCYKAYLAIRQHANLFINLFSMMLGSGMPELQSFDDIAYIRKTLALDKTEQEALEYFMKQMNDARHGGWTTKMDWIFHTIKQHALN
Sequence of PI3Kα H1047R mutant (P27986 whole entry partner): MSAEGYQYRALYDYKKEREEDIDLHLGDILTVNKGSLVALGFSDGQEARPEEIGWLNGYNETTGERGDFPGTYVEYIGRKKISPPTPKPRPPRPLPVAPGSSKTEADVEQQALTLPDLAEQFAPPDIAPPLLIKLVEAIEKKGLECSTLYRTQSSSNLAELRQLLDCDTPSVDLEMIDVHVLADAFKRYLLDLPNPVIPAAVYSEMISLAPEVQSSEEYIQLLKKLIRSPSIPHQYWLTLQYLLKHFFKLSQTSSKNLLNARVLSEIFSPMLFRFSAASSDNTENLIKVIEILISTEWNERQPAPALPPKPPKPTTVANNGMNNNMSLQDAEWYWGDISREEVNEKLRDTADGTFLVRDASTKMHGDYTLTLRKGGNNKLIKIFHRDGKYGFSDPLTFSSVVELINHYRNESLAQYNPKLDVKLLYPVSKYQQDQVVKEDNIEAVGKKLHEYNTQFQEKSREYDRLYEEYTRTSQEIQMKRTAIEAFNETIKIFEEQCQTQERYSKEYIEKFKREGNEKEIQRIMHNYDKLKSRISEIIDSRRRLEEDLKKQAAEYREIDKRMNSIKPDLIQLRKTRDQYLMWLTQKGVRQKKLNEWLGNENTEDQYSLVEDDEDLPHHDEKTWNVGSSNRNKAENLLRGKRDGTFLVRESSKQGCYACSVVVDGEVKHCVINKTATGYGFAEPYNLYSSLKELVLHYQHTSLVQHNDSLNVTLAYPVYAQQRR
Description: as §1

[5] = tested on: PI3Kα wide type cell line SK-BR-3; test: Cell Proliferation IC50 Assay (CellTiter-Glo), SK-BR-3; conditions: SK-BR-3 (PI3Kα wild type), 72 hours, CellTiter-Glo, read-out: IC50 (μM) SK-BR-3
Summary of the method: as §2

[6] = biological target: T1, PI3Kβ (Homo sapiens, UniProt P42338); test: Selectivity study, p-AKT (Ser473) HTRF assay in 786-O cells; conditions: 786-O cell, 1 hour incubation, serum-free medium
T1 construct: endogenous in cells; host or cells: 786-O
T1 sequence (P42338 whole entry): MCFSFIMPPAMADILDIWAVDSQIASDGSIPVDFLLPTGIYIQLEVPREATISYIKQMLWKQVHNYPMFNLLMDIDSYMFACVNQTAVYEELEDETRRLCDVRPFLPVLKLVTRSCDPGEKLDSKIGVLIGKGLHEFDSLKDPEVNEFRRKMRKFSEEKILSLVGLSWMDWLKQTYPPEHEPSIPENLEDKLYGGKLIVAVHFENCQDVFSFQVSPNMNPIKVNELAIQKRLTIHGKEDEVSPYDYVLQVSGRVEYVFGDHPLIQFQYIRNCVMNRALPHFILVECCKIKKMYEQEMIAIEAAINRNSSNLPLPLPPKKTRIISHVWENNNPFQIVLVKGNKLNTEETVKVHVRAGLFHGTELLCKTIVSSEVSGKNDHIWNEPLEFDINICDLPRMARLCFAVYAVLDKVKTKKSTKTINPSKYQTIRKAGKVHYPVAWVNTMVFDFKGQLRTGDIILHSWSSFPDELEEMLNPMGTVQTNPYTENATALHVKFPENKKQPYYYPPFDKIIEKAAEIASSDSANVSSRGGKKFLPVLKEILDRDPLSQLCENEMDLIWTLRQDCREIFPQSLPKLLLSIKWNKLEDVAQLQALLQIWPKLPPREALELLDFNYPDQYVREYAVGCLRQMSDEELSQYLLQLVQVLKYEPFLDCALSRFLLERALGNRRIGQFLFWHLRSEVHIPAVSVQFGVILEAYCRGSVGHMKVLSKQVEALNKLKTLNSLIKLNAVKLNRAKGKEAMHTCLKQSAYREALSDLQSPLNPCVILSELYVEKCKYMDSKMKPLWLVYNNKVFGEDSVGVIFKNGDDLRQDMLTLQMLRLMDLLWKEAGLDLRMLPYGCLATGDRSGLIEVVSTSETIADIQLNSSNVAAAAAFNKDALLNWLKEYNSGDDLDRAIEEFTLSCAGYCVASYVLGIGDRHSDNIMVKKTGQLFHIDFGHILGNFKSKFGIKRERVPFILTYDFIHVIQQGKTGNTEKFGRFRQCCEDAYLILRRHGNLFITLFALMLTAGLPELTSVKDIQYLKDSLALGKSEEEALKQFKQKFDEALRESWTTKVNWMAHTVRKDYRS
T1 sequence (P27986 whole entry partner): as the sequence (P27986 whole entry partner) above
Description: The following day, the complete medium was replaced with serum-free medium, 3-fold serial diluted compound solution in serum-free medium was added to each well according to the plate map. After 1 hour incubation, removed cell supernatant carefully and added supplemented lysis buffer (1×) for 45 min. The lysate was transferred to a 384-well small volume white plate, the CisBio Phospho-AKT (Ser473) HTRF assay was performed as the manufacturer's directions (Cisbio, #64AKSPEG).

[7] = MDA-MB-453 (H1047R), 72 hours, CellTiter-Glo
[8] = Homo sapiens, MDA-MB-453 (H1047R), 72 hours, CellTiter-Glo

Sequence of PI3Kα WT (P42336 whole entry): as the sequence (P42336 whole entry H1047R) above, with R1047H counted along it
Sequence of PI3Kα WT (P27986 whole entry partner): as the sequence (P27986 whole entry partner) above

Structure (SMILES)	IC50 ([2]; Homo sapiens, T47D, 72 h)	IC50 [3, 8]	IC50 ([5]; Homo sapiens)	further results
C[C@@H](Nc1ccccc1C(=O)O)c1cc(Cl)cc2c(=O)cc(-c3ccc4nn(C)cc4c3)oc12 (single isomer, unassigned) [Example 98B]	–	–	–	IC50 [1]: 1340 nM; IC50 [2]: > 10 µM; IC50 [3, 7]: > 10 µM; IC50 [4]: 19.5 nM; IC50 [5]: > 10 µM
CC(=O)N1CCN(c2ccc(-c3oc4c([C@@H](C)Nc5ccccc5C(=O)O)cc(C)cc4c(=O)c3C)cc2)CC1 (single isomer, unassigned) [Example 123A]	0.076 µM	0.15 µM	5.6 µM	IC50 [1]: 1100 nM; IC50 [4]: 37 nM; IC50 [6]: 6.46 µM
CC(=O)N1CCC(c2cc(=O)c3cc(C)cc(C(C)Nc4ccccc4C(=O)O)c3o2)CC1 (stereo not drawn) [Example 28, 2-((1-(2-(1-acetylpiperidin-4-yl)-6-methyl-4-oxo-4H-chromen-8-yl)ethyl)amino)benzoic acid]	1.77 µM	3.61 µM	> 10 µM	–
Cc1cc(C(C)Nc2ccccc2C(=O)O)c2oc(C3CCN(C(=O)C(F)(F)F)CC3)cc(=O)c2c1 (stereo not drawn) [Example 29, 2-((1-(6-methyl-4-oxo-2-(1-(2,2,2-trifluoroacetyl)piperidin-4-yl)-4H-chromen-8-yl)ethyl)amino)benzoic acid]	4.13 µM	> 10 µM	> 10 µM	–
Cc1cc(C(C)Nc2ccccc2C(=O)O)c2oc(C3CCN(C(=O)C4CC4)CC3)cc(=O)c2c1 (stereo not drawn) [Example 30, 2-((1-(2-(1-(cyclopropanecarbonyl)piperidin-4-yl)-6-methyl-4-oxo-4H-chromen-8-yl)ethyl)amino)benzoic acid]	1.87 µM	4 µM	> 10 µM	–
Cc1cc(C(C)Nc2ccccc2C(=O)O)c2oc(-c3cccnc3)cc(=O)c2c1 (stereo not drawn) [Example 32, 2-((1-(6-methyl-4-oxo-2-(pyridin-3-yl)-4H-chromen-8-yl)ethyl)amino)benzoic acid]	0.75 µM	1.38 µM	> 10 µM	–
Cc1cc(C(C)Nc2ccccc2C(=O)O)c2oc(-c3ccncc3)cc(=O)c2c1 (stereo not drawn) [Example 33, 2-((1-(6-methyl-4-oxo-2-(pyridin-4-yl)-4H-chromen-8-yl)ethyl)amino)benzoic acid]	0.32 µM	0.42 µM	> 10 µM	–
Cc1cc(C(C)Nc2ccccc2C(=O)O)c2oc(-c3ccn(C)c(=O)c3)cc(=O)c2c1 (stereo not drawn) [Example 34, 2-((1-(6-methyl-2-(1-methyl-2-oxo-1,2-dihydropyridin-4-yl)-4-oxo-4H-chromen-8-yl)ethyl)amino)benzoic acid]	4.63 µM	7.82 µM	> 10 µM	–
Cc1cc(C(C)Nc2ccccc2C(=O)O)c2oc(-c3ccc4ncccc4c3)cc(=O)c2c1 (stereo not drawn) [Example 35, 2-((1-(6-methyl-4-oxo-2-(quinolin-6-yl)-4H-chromen-8-yl)ethyl)amino)benzoic acid]	0.5 µM	0.57 µM	> 10 µM	–
Cc1cc(C(C)Nc2ccccc2C(=O)O)c2oc(-c3ccc4c(cnn4C)c3)cc(=O)c2c1 (stereo not drawn) [Example 37, 2-((1-(6-methyl-2-(1-methyl-1H-indazol-5-yl)-4-oxo-4H-chromen-8-yl)ethyl)amino)benzoic acid]	0.42 µM	0.8 µM	> 10 µM	–
Cc1cc([C@H](C)Nc2ccccc2C(=O)O)c2oc(-c3ccc4nn(C)cc4c3)cc(=O)c2c1 [Example 38A, (S)-2-((1-(6-methyl-2-(2-menthyl-2H-indazol-5-yl)-4-oxo-411-chromen-8-yl)ethyl)amino)benzoic acid]	–	–	–	IC50 [2]: > 10 µM; IC50 [3, 7]: > 10 µM; IC50 [5]: > 10 µM
Cc1cc(C(C)Nc2ccccc2C(=O)O)c2oc(-c3ccc4nn(C)cc4c3)cc(=O)c2c1 (stereo not drawn) [Example 38]	0.08 µM	0.15 µM	> 10 µM	–
Cc1cc(C(C)Nc2ccccc2C(=O)O)c2oc(-c3cnoc3)cc(=O)c2c1 (stereo not drawn) [Example 39, 2-((1-(2-(isoxazol-4-yl)-6-methyl-4-oxo-4H-chromen-8-yl)ethyl)amino)benzoic acid]	1.98 µM	2.49 µM	> 10 µM	–
Cc1cc(C(C)Nc2ccccc2C(=O)O)c2oc(-c3ccc(N4CCOCC4)cc3)cc(=O)c2c1 (stereo not drawn) [Example 42, 2-((1-(6-methyl-2-(4-morpholinophenyl)-4-oxo-4H-chromen-8-yl)ethyl)amino)benzoic acid]	0.21 µM	0.2 µM	> 10 µM	–
Cc1cc([C@@H](C)Nc2ccccc2C(=O)O)c2oc(-c3ccc4nn(C)cc4c3)c(C)c(=O)c2c1 [Example 49A, (R)-2-((1-(3,6-dimethyl-2-(2-methyl-211-indazol-5-yl)-4-oxo-4H-chromen-8-yl)ethyl)amino)benzoic acid]	–	–	–	IC50 [2]: 0.07 µM; IC50 [3, 7]: 0.09 µM; IC50 [5]: > 10 µM
Cc1cc(C(C)Nc2ccccc2C(=O)O)c2oc(-c3ccc(-c4cnn(C)c4)cc3)cc(=O)c2c1 (stereo not drawn) [Example 95, 2-((1-(6-methyl-2-(4-(1-methyl-1H-pyrazol-4-yl)phenyl)-4-oxo-4H-chromen-8-yl)ethyl)amino)benzoic acid]	–	–	–	IC50 [6]: 1.22 µM
CC(Nc1ccccc1C(=O)O)c1cc(Cl)cc2c(=O)cc(-c3ccc4nn(C)cc4c3)oc12 (stereo not drawn) [Example 98, 2-((1-(6-chloro-2-(2-methyl-2H-indazol-5-yl)-4-oxo-4H-chromen-8-yl)ethyl)amino)benzoic]	–	–	–	IC50 [6]: 1.15 µM
Cc1cc(C(C)Nc2ccccc2C(=O)O)c2oc(-c3cc(C)c4nn(C)cc4c3)cc(=O)c2c1 (stereo not drawn) [Example 109, 2-((1-(2-(2,7-dimethyl-21-indazol-5-yl)-6-methyl-4-oxo-4H-chromen-8-yl)ethyl)amino)benzoic acid]	0.22 µM	0.16 µM	> 10 µM	–
Cc1cc(C(C)Nc2ccc(Cl)nc2C(=O)O)c2oc(-c3ccc4nn(C)cc4c3)cc(=O)c2c1 (stereo not drawn) [Example 110, 6-chloro-3-((1-(6-methyl-2-(2-methyl-2-indazol-5-yl)-4-oxo-4H-chromen-8-yl)ethyl)amino)picolinic acid]	0.087 µM	–	> 10 µM	IC50 [6]: > 10 µM
Cc1cc(C(C)Nc2ccccc2S(N)(=O)=O)c2oc(-c3ccc4nn(C)cc4c3)c(C)c(=O)c2c1 (stereo not drawn) [Example 131, 2-((1-(3,6-dimethyl-2-(2-methyl-2H-indazol-5-yl)-4-oxo-4H-chromen-8-yl)ethyl)amino)benzenesulfonamide]	–	–	> 10 µM	IC50 ([2]; Homo sapiens): 0.055 µM; IC50 ([3]; Homo sapiens, MDA-MB-453, 72 h): 0.059 µM
Cc1cc([C@@H](C)Nc2ccccc2C(=O)O)c2oc(-c3ccc(OCCN(C)C)cc3)c(C)c(=O)c2c1 [Example 140, (R)-2-((1-(2-(4-(2-(dimethylamino)ethoxy)phenyl)-3,6-dimethyl-4-oxo-41-chromen-8-yl)ethyl)amino)benzoic acid]	0.041 µM	0.029 µM	> 10 µM	IC50 [1]: 2390 nM; IC50 [4]: 42.3 nM; IC50 [6]: > 10 µM
Cc1cc([C@@H](C)Nc2ccccc2C(=O)O)c2oc(-c3ccc(CN4CCN(C)C(=O)C4)cc3)c(C)c(=O)c2c1 [Example 148, (R)-2-((1-(3,6-dimethyl-2-(4-((4-methyl-3-oxopiperazin-1-yl)methyl)phenyl)-4-oxo-4H-chromen-8-yl)ethyl)amino)benzoic acid]	0.066 µM	–	> 10 µM	IC50 [1]: 4340 nM; IC50 [4]: 48.5 nM; IC50 [6]: > 10 µM
Cc1cc([C@@H](C)Nc2ccccc2C(=O)O)c2oc(-c3ccc(Cc4cnn(C)c4)cc3)c(C)c(=O)c2c1 [Example 151, 2-[[(1R)-1-[3,6-dimethyl-2-[4-[(1-methylpyrazol-4-yl)methyl]phenyl]-4-oxo-chromen-8-yl]ethyl]amino]benzoic acid]	0.058 µM	0.089 µM	> 10 µM	–
CC(=O)N1CCN(c2ccc(-c3oc4c([C@@H](C)Nc5ccccc5C(=O)O)cc(C)cc4c(=O)c3C)cc2F)CC1 [Example 154, (R)-2-((1-(2-(4-(4-acetylpiperazin-1-yl)-3-fluorophenyl)-3,6-dimethyl-4-oxo-41H-chromen-8-yl)ethyl)amino)benzoic acid]	0.074 µM	0.086 µM	> 10 µM	–
